Results: patent US5470860A, “1,4-dihydropyridines for use in the treatment of dermatoses” (Byk Gulden Lomberg Chemische Fabrik GmbH, priority 1991, dated 1995)

Key:
[1] = system: human transformed keratinocytes (HaCat); experiment: cells; settings: 72 h
Method: In a second cell reproduction test, human transformed keratinocytes (HaCat) are employed which are cultured in DMEM culture medium with an addition of 10% calf serum. Cells which have grown to confluence beforehand are isolated with trypsin and distributed in 6-well plates in a density of 40×10^3.
The test substance is added 24 h after distribution and after incubation for a further 72 h the cell count is determined using a Coulter counter. Controls are incubated without further additions or with the addition of the solubilizer polyethylene glycol 400 (0.05%).
Evaluation was made in each case for 6 wells/concentration.

human keratinocytes = experiment: cells; settings: Keratinocyte, 264 h, read-out: average inhibitory concentration (IC50)
Method: To determine the action, firstly human keratinocytes from the preputial skin of neonates after the 1st passage are distributed in MCDB153 medium in 96-well microtiter plates (2×10^3 cells/well) and the compound given below is added in concentrations of from 10^-10 to 10^-5 M, blank controls containing only the solubilizer DMSO (1%). The period of incubation is 11 days, and after another 2 days in each case there is a change of medium followed by renewed addition of substance.
To determine the rate of cell reproduction, incubation is carried out for 1 h with 4-methylumbelliferyl heptanoate (MUH) according to the method described by R. Stadler et al., Journal of Investigative Dermatology 93, 532-534, 1989, after which the fluorescence intensity is measured using a Titertek Fluoroskan.
4 experiments were carried out, in each case with 4 wells/concentration.

[2] = read-out: % inhibition of growth

IC50 (human keratinocytes): 88 nM
Compound: COC(=O)C1=C(C)NC(C)=C(C(=O)OCCCN2CCC(c3ccccc3)(c3ccccc3)CC2)C1c1cccc([N+](=O)[O-])c1 (single isomer, unassigned) [Compound 1, 3-methyl 5-[3-(4,4-diphenyl-1-piperidyl)propyl] (-)-1,4-dihydro-2,6-dimethyl-4-(3-nitrophenyl)pyridine-3,5-dicarboxylate]
inhibition at 1 µM [1, 2]: 60%
inhibition at 10 µM [1, 2]: 96%
IC50 ([1]; read-out: inhibitory concentration (IC50)): 520 nM
